“Also recorded” adds a separate entry of the source. Numbered stars: 1 amine (or outer) side, 2 acyl side, 3 side chain; on linkers, the order of the positions; unused ones are H or OH. Bridge positions count the residues as written; N and C are the ends. Square brackets hold non-standard residues; d marks the D form. Peptide text beside a SMILES is read from it. * marks the point of attachment. X2 = O=C1OC(C2CCCN2[*:1])=NC1C(=S)NC(CO)C(=O)[*:2]; X1 = CC(C)CC(=O)C1=NC(C(=S)NCC(=O)*)C(=O)O1
What was measured:
HepG2 cells [1] = test: Cellular MB uptake by competitive ELISA; assay type: in vitro ADME; details: 2 and 24 hours
Method: Cellular MB uptake was determined from cell lysates incubated for 2 or 24 h with MB at different concentrations by a competitive ELISA using a monoclonal anti-MB antibody.
Competitive ELISA. All 86 TCS were diluted 1:10 with buffer (PBS, 5% FCS, 0.01% sodium acide). 50 μl of each TCS were pre-incubated with 50 μl MB solution (1000 ng/ml in buffer) or buffer overnight. The experiments were run in duplicates. 50 μl of the pre-incubated sample were added to ELISA plates coated with MB as used for screening. After 10 min, the plates were washed, bound antibodies against MB were detected with HRP conjugated mAbs against the rat IgG isotypes and HRP was visualized with TMB. MAbs that recognized free MB (no signal when pre-incubated with MB, positive signal in the buffer control) were further analyzed in a serial dilution of MB (1000 ng/ml to 2 ng/ml). The four mAbs that best recognized free MB were established (10610, 12D9, 18H7, 21G5, all of rat IgG2a subclass). To increase the sensitivity of the test system, the TCS of the established hybridomas were titrated on ELISA plates coated with MB. The titer of […] was far better (1:1260) than of 12D9 (1:320), 18H7 (1:10) and 21G5 (1:320).
For the test system 10610 was used at a dilution of 1:500 and the pre-incubation time reduced to one hour.

HepG2 cells [2] = test: Neutral red cell toxicity assay; assay type: cell-based; details: 24 hours, 0.05 to 1 mM Zinc-MB
Method: Neutral red cell toxicity assay was done as described elsewhere (Repetto et al., Nat Protoc 3, 1125-1131 (2008)). In brief, 2×10^4 cells were incubated for 24 hours either with medium alone (containing 2% FCS, negative control), 0.05 to
1 mM Zinc-MB, or 0.25 mM CCCP as mitochondriotoxic positive control and subsequently analyzed by neutral red.

HepG2 cells [3] = test: Cellular de-coppering of HepG2 cells (ICP-OES); assay type: cell-based
Method: HepG2 cells were kept in MEM with 2% FCS. […] Therefore, Zn-MB, generated by preparing a 20 mM MB solution and adding an equimolar concentration of Zn solution under pH control, was used in cell culture experiments.
To determine the cellular de-coppering efficiency of MB, cells were pretreated with 2% FCS containing medium or 15 μM copper-histidine for 24 h and subsequently subjected to a 24 h treatment with 500 μM MB. Thereafter, cells were washed two times and counted. Copper in 2.5×10^6 cells was determined by ICP-OES after wet ashing of samples with 65% nitric acid.
Copper in liver homogenates, cell lysates and mitochondrial preparations were analyzed by ICP-OES (Ciros Vision, SPECTRO Analytical Instruments GmbH) after wet ashing of samples with 65% nitric acid (Zischka et al., log. cit.).

LPP−/− livers = test: Two hour LPP−/− liver perfusion; design: species or system rat
Method: LPP−/− livers (animal age 79-83 days) were perfused in a single pass manner with Krebs-Ringer bicarbonate solution containing 5 mM glucose (Beuers et al., J Biol Chem 278, 17810-17818 (2003)). The medium was gassed with 95% O2/5% CO2 and kept at 37° C. Rat livers were perfused via the portal vein (Beuers et al., log. cit.), the right lateral liver lobe was ligated and its copper content served as pre-perfusion control (Beuers et al., Hepatology 33, 1206-1216 (2001)). After cannulation of the bile duct a 20 min sample of bile was collected before the copper chelators were continuously added to the perfusion medium. Bile and outflow perfusate were collected in 10 min intervals as described elsewhere (Beuers et al., log. cit.). D-PA*HCl (20 mg/108 μmol), TETA*2HCl (20 mg/91 μmol), TTM*2NH4 (10 mg/38 μmol) and MB (40 mg/35 μmol) were each dissolved in 50 ml 0.9% NaCl, and continuously added to the perfusion medium via a perfusion pump (Perfusor, Braun, Melsungen) within 2 hours. The molar ratios of the chelators applied was MB 1:D-PA 3.1:TETA 2.6:TTM 1.1. LDH in the outflow perfusate was measured every ten minutes as described (Beuers et al., log. cit.). Control perfusions were done with Krebs-Ringer bicarbonate solution only.

[4] = system: WD patient-derived hepatocyte like (HLC) cells; test: De-coppering of WD patient-derived hepatocyte like cells (HLC); assay type: cell-based, human; details: Cu-histidin 15 μM 24 h, then MB 300 μM 24 h
Method: Urinary epithelial cells were pelleted at 400×g for 10 min from freshly donated mid-stream urine (Zhou et al., J Am Soc Nephrol 22, 1221-1228 (2011)). Cells were cultured in urinary cell medium (UCM) consisting of Dulbecco's modified Eagle medium/Ham's F-12 culture medium (DMEM/F12, Lonza) supplemented with 10% fetal bovine serum (FBS, PAA), 0.1 mM non-essential amino acids (NEAA, Sigma), 0.1 mM β-mercaptoethanol, 1 mM GlutaMAX (Life Technologies), and SingleQuot Kit CC-4127 REGM (Lonza). Urinary epithelial cells were reprogrammed by nucleofection of episomal expression vectors pCXLE-hOCT3/4-shp53-F, pCXLE-hSK, and pCXLE-hUL (Addgene) using the Amaxa Basic Nucleofector Kit (Lonza, VPI-1005). iPS cells (iPSCs) were maintained on Matrigel-coated plates in mTeSR cell culture medium and dissociated with 1 U/ml dispase (Stem Cell Technologies) into small clusters and subcultured every 5 to 7 days. WD iPSCs were differentiated into hepatocyte-like cells (HLCs) by a modification of the method reported previously (Basma et al., Gastroenterology 136, 990-999 (2009)). […] iPSCs were plated in single cells onto 6-well plates precoated with Matrigel. […]
HLCs were incubated at day 14 with Cu-histidin (15 μM) for 24 h in a 6 well plate. […] After 24 h incubation, washed cells were collected, counted and their copper content assessed.

In the case of CSCCC(NC(=O)C1CSSCC(NC(=O)C(CO)NC(=O)CNC(=S)C2N=C(C(=O)CC(C)C)OC2=O)C(=O)NC(Cc2ccc(O)cc2)C(=O)N2CCCC2C2=NC(C(=O)O2)C(=S)NC(CO)C(=O)N1)C(=O)O (centres unmarked) [MB] (X1-SCY[X2]CM-OH; disulfide 2-5; configuration not given here), the “intracellular MB uptake” value (HepG2 cells [1]) is reported as “taken up in a dose dependent manner”, the “cytotoxic effects (neutral red)” value (HepG2 cells [2]) is reported as “only observed at millimolar MB concentrations” and the “de-coppering of copper preloaded HepG2 cells” value (HepG2 cells [3]; 24 h MB treated vs untreated control) is reported as “highly efficiently de-coppered”. The “reduction of copper in HepG2 cells” value (HepG2 cells [3]; basic copper load, 24 h 500 μM MB (Zn-MB used in cell culture)) was 50%, the “reduction of copper in HepG2 cells” value (HepG2 cells [3]; preloaded with 15 μM copper-histidine 24 h, then 24 h 500 μM MB) was 50% and the “copper released into bile” value (LPP−/− livers; MB 0.7 μM, TTM 0.8 μM, D-PA 2.2 μM, TETA 1.8 μM) was “tenfold higher amounts of copper; also recorded: tenfold higher copper amounts into bile”. The “liver copper content after perfusion” value (LPP−/− livers; vs pre-perfusion/buffer control) was “significantly reduced the copper content; also recorded: significantly reduces the liver copper content” and the “de-coppering of copper preloaded HLC” value [4] was “Comparable copper depletions; also recorded: highly efficiently de-coppered”.

Source: patent US11000568B2, “Means and methods for treating copper-related diseases” (HELMHOLTZ ZENTRUM MÜNCHEN—DEUTSCHES FORSCHUNGSZENTRUM FÜR …, priority 2015, dated 2021)
